Source: patent US20160058775A1, “COMPOSITION AND FORMULATION OF ANTIMICROBIAL AGENTS, PROCESSES THEREOF AND METHODS FOR TREATING MICROBIAL INFECTIONS” (VYOME BIOSCIENCES PVT. LTD., priority 2013, published 2016)
Like-named read-outs stand apart in the source and are kept apart here.

Test system: M. furfur
Excerpt: The time-kill assays were used to evaluate efficacy of antimicrobial agents, either singly or in combination, and the results can help in establishing the dose and/or time of application of the active. The time-kill assays were used to study both concentration-dependent and time-dependent antimicrobial action.
M. furfur cells were suspended in Sabouraud Dextrose Broth (SDB) at inoculum concentration of 7×10^7 cells/ml. Cells were taken from a freshly growing (3-7 days old) plate and cell suspension was vortexed to remove the cell clumps as much as possible. Sterile media were supplemented with chloramphenicol (0.25 mg/ml), cycloheximide (0.04 mg/ml) and olive oil (2%). The media were then supplemented with appropriate concentrations (two-fold serial dilutions using SDB) of unmodified zinc pyrithione API (10 μg/ml and 50 μg/ml) with different concentrations of Capmul 908-P (0%, 1%, 3%, 5% & 9%). The cultures were incubated on a tube rotator at 34° C. in CO2 incubator.
To measure the colony forming units (CFU), at different time points, aliquots (50 μl) of Malassezia cultures were serially diluted with SDBT medium (SDB containing 0.1% Triton X-100) and plated on SDA plates. The plates are incubated at 34° C. in CO2 incubator for 3 days. The viable colonies were counted and converted to CFU/ml.

zinc pyrithione [ZPT]
Log CFU Count of M. furfur (ZPT 10 μg/ml, Capmul 908-P 30 μg/ml, 6 hrs): 6.50
Log CFU Count of M. furfur (ZPT 10 μg/ml, Capmul 908-P 30 μg/ml, 24 hrs): 5.94
Log CFU Count of M. furfur (ZPT 10 μg/ml, Capmul 908-P 30 μg/ml, 48 hrs): 5.06
Log CFU Count of M. furfur (ZPT 10 μg/ml, Capmul 908-P 50 μg/ml, 6 hrs): 6.37
Log CFU Count of M. furfur (ZPT 10 μg/ml, Capmul 908-P 50 μg/ml, 24 hrs): 5.57
Log CFU Count of M. furfur (ZPT 10 μg/ml, Capmul 908-P 50 μg/ml, 48 hrs): 4.80
Log CFU Count of M. furfur (ZPT 10 μg/ml, Capmul 908-P 90 μg/ml, 6 hrs): 6.33
Log CFU Count of M. furfur (ZPT 10 μg/ml, Capmul 908-P 90 μg/ml, 24 hrs): 5.55
Log CFU Count of M. furfur (ZPT 10 μg/ml, Capmul 908-P 90 μg/ml, 48 hrs): 4.77
Log CFU Count of M. furfur (ZPT 10 μg/ml, Capmul 908-P nil, 6 hrs): 6.56
Log CFU Count of M. furfur (ZPT 10 μg/ml, Capmul 908-P nil, 24 hrs): 6.13
Log CFU Count of M. furfur (ZPT 10 μg/ml, Capmul 908-P nil, 48 hrs): 5.27
Log CFU Count of M. furfur (ZPT 50 μg/ml, Capmul 908-P 30 μg/ml, 6 h): 6.06
Log CFU Count of M. furfur (ZPT 50 μg/ml, Capmul 908-P 30 μg/ml, 24 h): 4.69
Log CFU Count of M. furfur (ZPT 50 μg/ml, Capmul 908-P 30 μg/ml, 48 h): 3.25
Log CFU Count of M. furfur (ZPT 50 μg/ml, Capmul 908-P 50 μg/ml, 6 h): 5.94
Log CFU Count of M. furfur (ZPT 50 μg/ml, Capmul 908-P 50 μg/ml, 24 h): 4.62
Log CFU Count of M. furfur (ZPT 50 μg/ml, Capmul 908-P 50 μg/ml, 48 h): 3.04
Log CFU Count of M. furfur (ZPT 50 μg/ml, Capmul 908-P 90 μg/ml, 6 h): 5.52
Log CFU Count of M. furfur (ZPT 50 μg/ml, Capmul 908-P 90 μg/ml, 24 h): 3.63
Log CFU Count of M. furfur (ZPT 50 μg/ml, Capmul 908-P 90 μg/ml, 48 h): 2.08
Log CFU Count of M. furfur (ZPT 50 μg/ml, Capmul 908-P nil, 6 h): 6.43
Log CFU Count of M. furfur (ZPT 50 μg/ml, Capmul 908-P nil, 24 h): 5.39
Log CFU Count of M. furfur (ZPT 50 μg/ml, Capmul 908-P nil, 48 h): 3.92
Anti-microbial activity towards M. furfur with increasing concentration of propylene glycol monocaprylate (Capmul 908-P) (time-kill, Tables 12 and 13): gets potentiated
